Measurements taken from ChEMBL document CHEMBL1201862, “PubChem BioAssay data set” (2004).
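Interpolation was linear, between the two tested concentrations surrounding the appropriate level; five concentrations were tested over 48 hours in 96-well plates. GI50 is the concentration that inhibits growth by half.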 Activity calls are given as the source filed them. Rule as the data show it: active = GI50 up to about 1.1 µM and inactive = higher.

Key:
Assay in all cases: inhibition of tumour cell growth, NCI panel, 48 h
786-0 = tested on: 786-0
HL-60 = tested on: HL-60
HCT-116 = tested on: HCT-116
M19-MEL = tested on: M19-MEL
KM12 = tested on: KM12
OVCAR-8 = tested on: OVCAR-8
A498 = tested on: A498
OVCAR-3 = tested on: OVCAR-3
M14 = tested on: M14
K562 = tested on: K562
SN12C = tested on: SN12C
MOLT-4 = tested on: MOLT-4
SK-MEL-28 = tested on: SK-MEL-28
IGROV-1 = tested on: IGROV-1
OVCAR-4 = tested on: OVCAR-4
SK-MEL-5 = tested on: SK-MEL-5
RPMI-8226 = tested on: RPMI-8226
UO-31 = tested on: UO-31

Measured: GI50

Cc1cc(C)c(C2[C@H]3C(=O)N(c4ccc(Cc5ccc(N6C(=O)[C@@H]7ON(c8ccccc8)C(c8c(C)cc(C)cc8C)[C@@H]7C6=O)cc5)cc4)C(=O)[C@H]3ON2c2ccccc2)c(C)c1 (stereo partly drawn)
inactive: 786-0 > 100 µM | HL-60 46.3 µM | HCT-116 > 100 µM | M19-MEL > 100 µM | KM12 > 100 µM | OVCAR-8 > 100 µM | A498 > 100 µM | OVCAR-3 > 100 µM | M14 > 100 µM | K562 > 100 µM | SN12C > 100 µM | MOLT-4 > 100 µM | SK-MEL-28 > 100 µM | IGROV-1 > 100 µM | OVCAR-4 > 100 µM | SK-MEL-5 > 100 µM | RPMI-8226 > 100 µM | UO-31 > 100 µM

CC(C)(c1ccccc1)c1ccc(OC#N)cc1
inactive: 786-0 > 58.1 µM | HL-60 36.4 µM | HCT-116 34.4 µM | M19-MEL > 60.1 µM | KM12 > 75 µM | OVCAR-8 > 100 µM | A498 > 100 µM | OVCAR-3 > 100 µM | M14 > 100 µM | K562 37.8 µM | SN12C 60.5 µM | MOLT-4 35.2 µM | SK-MEL-28 > 70.5 µM | IGROV-1 > 100 µM | OVCAR-4 71.4 µM | SK-MEL-5 48.8 µM | RPMI-8226 34.1 µM | UO-31 49.1 µM

CC(C)Cc1cc(CCC(=O)Nc2ccccc2[N+](=O)[O-])nc(NC#N)n1
inactive: 786-0 > 100 µM | HL-60 > 100 µM | HCT-116 > 100 µM | M19-MEL > 100 µM | KM12 > 100 µM | OVCAR-8 > 100 µM | A498 > 100 µM | OVCAR-3 > 100 µM | M14 > 100 µM | K562 > 100 µM | SN12C > 100 µM | MOLT-4 > 100 µM | SK-MEL-28 > 100 µM | IGROV-1 > 100 µM | OVCAR-4 > 100 µM | SK-MEL-5 > 100 µM | RPMI-8226 > 100 µM | UO-31 > 100 µM

O=C1CCCN(c2ccccc2)N1
inactive: 786-0 > 100 µM | HL-60 > 100 µM | HCT-116 > 100 µM | M19-MEL > 100 µM | KM12 > 100 µM | OVCAR-8 > 100 µM | A498 > 100 µM | OVCAR-3 > 100 µM | M14 > 100 µM | K562 > 100 µM | SN12C > 100 µM | MOLT-4 > 100 µM | SK-MEL-28 > 100 µM | IGROV-1 > 100 µM | OVCAR-4 > 100 µM | SK-MEL-5 > 100 µM | RPMI-8226 > 100 µM | UO-31 > 100 µM

COc1cc2c[n+](C)c3c4cc(OC)c(OC)cc4c(OCCCCCCCCOc4cc5c6cc(OC)c(OC)cc6c[n+](C)c5c5cc(OC)c(OC)cc45)cc3c2cc1OC
inactive: 786-0 30.6 µM | HL-60 2.23 µM | HCT-116 > 100 µM | M19-MEL 53.1 µM | KM12 72.8 µM | OVCAR-8 > 100 µM | A498 > 100 µM | OVCAR-3 > 100 µM | M14 > 100 µM | K562 8.71 µM | SN12C > 100 µM | MOLT-4 31.6 µM | SK-MEL-28 > 100 µM | IGROV-1 > 100 µM | OVCAR-4 > 100 µM | SK-MEL-5 47.8 µM | RPMI-8226 22.3 µM | UO-31 > 100 µM

CN1C(=O)C(=O)c2cc3c(c4c2c1cc1ccccc14)OCO3 [CEPHARADIONE A]
inactive: 786-0 7.23 µM | HL-60 38.5 µM | HCT-116 15.6 µM | M19-MEL 28.4 µM | KM12 18.3 µM | OVCAR-8 24.1 µM | A498 > 100 µM | OVCAR-3 62.1 µM | M14 26.7 µM | K562 27.2 µM | SN12C 37.7 µM | MOLT-4 17.9 µM | SK-MEL-28 40.5 µM | IGROV-1 37.6 µM | OVCAR-4 58.6 µM | SK-MEL-5 28.4 µM | RPMI-8226 25.1 µM | UO-31 20.2 µM
